Key:
[1] = tested on: Skeletonema costatum; experiment: Acute aquatic toxicity, ISO 10253; type: in vivo; details: Hec50, 72 h, Method: ISO 10253
Method: (§1) (i) acute toxicity to the most sensitive marine species (skeletonema costatum) must be greater than EC50 of 10 mg/L; (ii) bioaccumulation potential (as indicated by Log Pow, the octanol-water partition coefficient) must be below 3 or the molecular weight must be greater than 700; and (iii) biodegradation in 28 days is greater than 60%. Corrosion inhibitor intermediates such as the quaternary ammonium salt were tested for their level of acute aquatic toxicity (Table 9), Log Pow (Table 10), and their ability to biodegrade in 28 days (Table 10).

[2] = Log Pow (octanol-water partition coefficient), OECD 117; type: physicochemical; details: n-octanol/water; Method: OECD 117
Text: The bioaccumulation potential of chemical substances has generally been determined from the n-octanol/water partition coefficient (expressed as log Pow) and the bioconcentration factor. The log Pow represents the ratio of a material that dissolves or disperses in octanol (the oil phase) versus water. This coefficient is used as a chemical surrogate for bioaccumulative potential. A log Pow of less than ten is preferred, a log Pow of less than six is more preferred, and a log Pow of less than three is most preferred.
as §1

[3] = Acute aquatic toxicity, ISO 146669; details: Acartia tonsa, in vivo, Method: ISO 146669
Method: as §1

[4] = tested on: Corophium volutator; experiment: Acute aquatic toxicity, PARCOM; type: in vivo; details: Method: PARCOM
Method: as §1

[5] = Biodegradation in 28 days, Marine BODIS; details: Method: Marine BODIS
Text: Biodegradation is the chemical breakdown of a material by microorganisms into nutrients that can be used by other organisms. Generally, a complex molecule can be broken down into carbon dioxide, water, microbial biomass, and/or inorganic salts. A biodegradation of 10% or greater is preferred, biodegradation of 20% or greater is more preferred, and a biodegradation of 60% or greater is most preferred.
as §1

SMILES	EC50 [1] [µg/mL]	chromatographic logP [2]	LC50 at 48 h [3] [µg/mL]	Corophium volutator 10 d LC50 [4] [mg/kg]	Biodegradation (28 days) [5] [%^7]
CCOC(=O)c1cc[n+](Cc2cccc3ccccc23)cc1.[Cl-] [Compound 1]	> 10	2.7	–	–	–
NC(=O)c1ccc[n+](Cc2cccc3ccccc23)c1.[Cl-] [Compound 4]	–	2.1	105	6116.15	40

From patent US9074289B2, “Environmentally friendly corrosion inhibitor” (NALCO COMPANY, priority 2011, dated 2015)
